From patent US20160367502A1, “FILM COATED PELLETS” (RATIOPHARM GMBH, priority 2012, published 2016) come the findings set out here.

Read-outs that look alike come from different tables or passages of the source.

The nature of the series: Solubility in water at 25° C. The series is classed as physicochemical. On the procedure: If it is not known, it can be determined by conventional methods. […] The amount or concentration of the active pharmaceutical ingredient in the solution is determined by analytical techniques known in the art.
[1] abbreviates: sitagliptin salts, water, 25° C.

`N[C@@H](CC(=O)N1CCn2c(nnc2C(F)(F)F)C1)Cc1cc(F)c(F)cc1F.O=C[C@H](O)[C@@H](O)[C@H](O)[C@H](O)C(=O)O` [D-Glucuronate, sitagliptin D-glucuronate]: the “Solubility of sitagliptin salts in water at 25° C.” value (“Solubility of sitagliptin salts” below) under setting [1] was >500 mg/mL.

`N[C@@H](CC(=O)N1CCn2c(nnc2C(F)(F)F)C1)Cc1cc(F)c(F)cc1F.O=P(O)(O)O` [Dihydrogen phosphate, sitagliptin dihydrogen phosphate]: the “Solubility of sitagliptin salts” value under setting [1] was in the range of 100 to 120 mg/mL.

On to sitagliptin glutarate, for which the “Solubility of sitagliptin salts” value was >500 mg/mL.
